# Measurements from article PMC4051630, “A Comparison of Protein Kinases Inhibitor Screening Methods Using Both Enzymatic Activity and Binding Affinity Determination” (PLoS ONE, 2014).
# Experiments:
# Assay in all cases: Differential Scanning Fluorimetry (DSF) Tm shift
# Assay type in all cases: binding
# [1] = target: T1, PAK4 Catalytic Domain+PBD (Homo sapiens, UniProt O96013); conditions: 2 µM protein, 10 µM inhibitor, average of 3 experiments, each in duplicate
# T1 construct: for 8, we also made a longer version containing one or more additional domains; His-tag; made in house; host or cells: Escherichia coli
# SRC Catalytic Domain = SRC Catalytic Domain (Homo sapiens, UniProt P12931); design: For all of them, we expressed and purified the catalytic domain separately; His-tag; made in house; host or cells: Escherichia coli; conditions: 2 µM protein, 10 µM inhibitor, average of 3 experiments, each in duplicate
# FAK2 Catalytic Domain = target: T2, FAK2 Catalytic Domain (Homo sapiens, UniProt Q14289); conditions: 2 µM protein, 10 µM inhibitor, average of 3 experiments, each in duplicate
# T2 construct: For all of them, we expressed and purified the catalytic domain separately; His-tag; made in house; host or cells: Escherichia coli
# STK3 Catalytic Domain = target: T3, STK3 Catalytic Domain (Homo sapiens, UniProt Q13188); conditions: 2 µM protein, 10 µM inhibitor, average of 3 experiments, each in duplicate
# T3 construct: For all of them, we expressed and purified the catalytic domain separately; His-tag; made in house; host or cells: Escherichia coli
# T3 sequence (Q13188 27-278 limits assumed): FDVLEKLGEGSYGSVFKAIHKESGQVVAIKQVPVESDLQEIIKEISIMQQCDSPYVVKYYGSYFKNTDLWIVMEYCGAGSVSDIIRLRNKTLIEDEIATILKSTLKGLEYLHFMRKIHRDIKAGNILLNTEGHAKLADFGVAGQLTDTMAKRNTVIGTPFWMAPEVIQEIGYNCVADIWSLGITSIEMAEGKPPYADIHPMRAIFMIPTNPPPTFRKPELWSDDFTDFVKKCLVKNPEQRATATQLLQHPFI
# CDK2 + Cyclin E = target: T4, CDK2 + Cyclin E (Homo sapiens, UniProt P24941); conditions: CDK2 + Cyclin E; 2 µM protein, 10 µM inhibitor; average of 3 experiments, each in duplicate
# T4 construct: CDK2 (P24941); 1–299; His-tag; made in house; host or cells: Escherichia coli
# PAK7 Catalytic Domain = target: T5, PAK7 Catalytic Domain (Homo sapiens, UniProt Q9P286); conditions: 2 µM protein, 10 µM inhibitor, average of 3 experiments, each in duplicate
# T5 construct: For all of them, we expressed and purified the catalytic domain separately; His-tag; made in house; host or cells: Escherichia coli
# [2] = target: SRC Catalytic Domain+SH2+SH3 (Homo sapiens, UniProt P12931); conditions: 2 µM protein, 10 µM inhibitor, average of 3 experiments, each in duplicate
# CDK2 + Cyclin A = target: T6, CDK2 + Cyclin A (Homo sapiens, UniProt P24941); conditions: CDK2 + Cyclin A; 2 µM protein, 10 µM inhibitor; average of 3 experiments, each in duplicate
# T6 construct: CDK2 (P24941); 1–299; His-tag; made in house; host or cells: Escherichia coli
# AKT3 Catalytic Domain = target: T7, AKT3 Catalytic Domain (Homo sapiens, UniProt Q9Y243); conditions: 2 µM protein, 10 µM inhibitor, average of 3 experiments, each in duplicate
# T7 construct: AKT3 (Q9Y243); CD; His-tag; made in house; host or cells: Escherichia coli
# [3] = target: T8, STK3 Catalytic domain+SARAH (Homo sapiens, UniProt Q13188); conditions: 2 µM protein, 10 µM inhibitor, average of 3 experiments, each in duplicate
# T8 construct: for 8, we also made a longer version containing one or more additional domains; His-tag; made in house; host or cells: Escherichia coli
# T8 sequence (Q13188 1-491): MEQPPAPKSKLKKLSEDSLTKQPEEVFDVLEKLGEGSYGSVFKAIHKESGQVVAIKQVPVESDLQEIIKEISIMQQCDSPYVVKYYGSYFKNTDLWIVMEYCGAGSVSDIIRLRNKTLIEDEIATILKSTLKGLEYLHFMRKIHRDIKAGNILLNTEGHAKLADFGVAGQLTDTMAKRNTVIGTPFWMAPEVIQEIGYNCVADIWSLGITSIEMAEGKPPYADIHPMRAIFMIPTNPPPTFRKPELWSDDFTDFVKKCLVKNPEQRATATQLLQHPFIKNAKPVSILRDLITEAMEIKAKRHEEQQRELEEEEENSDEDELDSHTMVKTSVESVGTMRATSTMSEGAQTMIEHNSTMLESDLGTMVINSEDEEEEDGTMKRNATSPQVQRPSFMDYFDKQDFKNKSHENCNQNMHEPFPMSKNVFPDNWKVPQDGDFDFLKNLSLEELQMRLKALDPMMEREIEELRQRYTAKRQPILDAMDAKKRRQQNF
# FES Catalytic Domain = target: T9, FES Catalytic Domain (Homo sapiens, UniProt P07332); conditions: 2 µM protein, 10 µM inhibitor, average of 3 experiments, each in duplicate
# T9 construct: For all of them, we expressed and purified the catalytic domain separately; His-tag; made in house; host or cells: Escherichia coli
# DMPK Catalytic Domain = target: T10, DMPK Catalytic Domain (Homo sapiens, UniProt Q09013); conditions: 2 µM protein, 10 µM inhibitor, average of 3 experiments, each in duplicate
# T10 construct: For all of them, we expressed and purified the catalytic domain separately; His-tag; made in house; host or cells: Escherichia coli
# T10 sequence (Q09013 71-339 limits assumed): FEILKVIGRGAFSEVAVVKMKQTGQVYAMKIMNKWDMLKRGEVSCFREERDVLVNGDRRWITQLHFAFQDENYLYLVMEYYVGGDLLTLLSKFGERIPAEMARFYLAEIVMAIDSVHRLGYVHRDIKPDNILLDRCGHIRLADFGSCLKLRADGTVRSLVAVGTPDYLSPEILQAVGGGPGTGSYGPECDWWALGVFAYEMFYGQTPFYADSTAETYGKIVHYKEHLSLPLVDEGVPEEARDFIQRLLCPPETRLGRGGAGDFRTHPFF
# FES Catalytic Domain+SH2 = target: T11, FES Catalytic Domain+SH2 (Homo sapiens, UniProt P07332); conditions: 2 µM protein, 10 µM inhibitor, average of 3 experiments, each in duplicate
# T11 construct: for 8, we also made a longer version containing one or more additional domains; His-tag; made in house; host or cells: Escherichia coli
# CHK2 Catalytic Domain = target: T12, CHK2 Catalytic Domain (Homo sapiens, UniProt O96017); conditions: 2 µM protein, 10 µM inhibitor, average of 3 experiments, each in duplicate
# T12 construct: For all of them, we expressed and purified the catalytic domain separately; His-tag; made in house; host or cells: Escherichia coli
# PAK4 Catalytic Domain = target: T13, PAK4 Catalytic Domain (Homo sapiens, UniProt O96013); conditions: 2 µM protein, 10 µM inhibitor, average of 3 experiments, each in duplicate
# T13 construct: For all of them, we expressed and purified the catalytic domain separately; His-tag; made in house; host or cells: Escherichia coli
# T13 sequence (O96013 321-572 limits assumed): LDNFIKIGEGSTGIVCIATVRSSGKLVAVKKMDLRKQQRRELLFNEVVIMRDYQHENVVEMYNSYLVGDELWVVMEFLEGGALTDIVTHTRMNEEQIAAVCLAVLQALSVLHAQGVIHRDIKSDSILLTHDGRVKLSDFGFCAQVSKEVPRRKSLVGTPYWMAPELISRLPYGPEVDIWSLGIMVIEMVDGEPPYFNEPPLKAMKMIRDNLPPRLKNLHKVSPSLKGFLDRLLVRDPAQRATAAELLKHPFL
# T12 sequence (O96017 220-486 limits assumed): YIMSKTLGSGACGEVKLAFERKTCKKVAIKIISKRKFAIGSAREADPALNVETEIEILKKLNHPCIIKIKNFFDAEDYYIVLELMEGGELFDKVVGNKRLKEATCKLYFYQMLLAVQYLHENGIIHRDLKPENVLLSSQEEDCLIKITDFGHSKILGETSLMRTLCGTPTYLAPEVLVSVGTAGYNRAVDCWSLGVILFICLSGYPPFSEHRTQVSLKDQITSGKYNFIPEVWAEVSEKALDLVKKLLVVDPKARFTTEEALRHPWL
# T9 sequence (P07332 561-822 limits assumed): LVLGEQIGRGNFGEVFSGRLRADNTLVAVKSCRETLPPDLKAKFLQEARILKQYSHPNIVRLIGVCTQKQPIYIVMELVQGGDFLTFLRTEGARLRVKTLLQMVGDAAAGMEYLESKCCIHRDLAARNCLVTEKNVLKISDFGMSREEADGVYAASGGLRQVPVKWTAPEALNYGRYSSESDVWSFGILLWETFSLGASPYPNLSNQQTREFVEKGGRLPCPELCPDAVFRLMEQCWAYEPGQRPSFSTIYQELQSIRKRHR
# T5 sequence (Q9P286 449-700 limits assumed): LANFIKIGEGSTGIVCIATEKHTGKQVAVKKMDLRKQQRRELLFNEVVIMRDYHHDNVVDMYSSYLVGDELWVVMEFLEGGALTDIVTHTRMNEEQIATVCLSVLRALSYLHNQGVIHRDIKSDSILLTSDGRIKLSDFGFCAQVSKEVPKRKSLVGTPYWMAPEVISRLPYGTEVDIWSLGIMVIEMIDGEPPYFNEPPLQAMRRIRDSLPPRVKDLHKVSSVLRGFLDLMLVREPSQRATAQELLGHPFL
# T2 sequence (Q14289 425-683 limits assumed): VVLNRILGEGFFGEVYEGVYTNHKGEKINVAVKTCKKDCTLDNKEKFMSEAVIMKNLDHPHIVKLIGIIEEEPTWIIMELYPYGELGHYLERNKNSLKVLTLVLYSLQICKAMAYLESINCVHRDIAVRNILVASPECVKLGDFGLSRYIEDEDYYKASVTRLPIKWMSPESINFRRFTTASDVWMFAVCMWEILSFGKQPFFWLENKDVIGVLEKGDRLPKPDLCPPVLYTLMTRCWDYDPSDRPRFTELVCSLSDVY
# T1 sequence (O96013 whole entry, the tested form may be a part): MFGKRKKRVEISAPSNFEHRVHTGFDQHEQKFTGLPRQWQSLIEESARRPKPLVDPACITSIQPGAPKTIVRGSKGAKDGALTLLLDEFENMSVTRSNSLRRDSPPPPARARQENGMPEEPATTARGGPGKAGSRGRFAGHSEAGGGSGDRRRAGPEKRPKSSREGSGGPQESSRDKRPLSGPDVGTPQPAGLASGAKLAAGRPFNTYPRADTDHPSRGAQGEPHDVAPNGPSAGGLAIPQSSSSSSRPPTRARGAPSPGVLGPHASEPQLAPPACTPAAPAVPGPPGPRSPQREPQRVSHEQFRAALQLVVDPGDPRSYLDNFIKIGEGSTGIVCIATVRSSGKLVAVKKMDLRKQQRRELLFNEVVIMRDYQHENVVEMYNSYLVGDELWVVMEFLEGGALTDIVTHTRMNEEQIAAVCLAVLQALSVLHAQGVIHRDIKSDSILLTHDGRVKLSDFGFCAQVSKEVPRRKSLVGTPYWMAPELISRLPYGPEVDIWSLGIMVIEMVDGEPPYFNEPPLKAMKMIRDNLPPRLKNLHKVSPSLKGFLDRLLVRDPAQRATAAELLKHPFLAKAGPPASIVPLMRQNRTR
# T7 sequence (Q9Y243 122-479): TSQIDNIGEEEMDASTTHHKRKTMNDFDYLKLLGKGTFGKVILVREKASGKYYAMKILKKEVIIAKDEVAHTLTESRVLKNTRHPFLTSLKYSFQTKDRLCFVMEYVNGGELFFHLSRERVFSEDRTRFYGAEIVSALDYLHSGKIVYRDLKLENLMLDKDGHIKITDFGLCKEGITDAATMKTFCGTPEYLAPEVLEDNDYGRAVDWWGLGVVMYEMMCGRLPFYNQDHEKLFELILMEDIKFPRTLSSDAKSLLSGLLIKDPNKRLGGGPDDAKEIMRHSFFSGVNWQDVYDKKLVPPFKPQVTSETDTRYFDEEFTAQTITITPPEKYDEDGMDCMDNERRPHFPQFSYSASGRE
# SRC Catalytic Domain+SH2+SH3, sequence (P12931 84-523 limits assumed): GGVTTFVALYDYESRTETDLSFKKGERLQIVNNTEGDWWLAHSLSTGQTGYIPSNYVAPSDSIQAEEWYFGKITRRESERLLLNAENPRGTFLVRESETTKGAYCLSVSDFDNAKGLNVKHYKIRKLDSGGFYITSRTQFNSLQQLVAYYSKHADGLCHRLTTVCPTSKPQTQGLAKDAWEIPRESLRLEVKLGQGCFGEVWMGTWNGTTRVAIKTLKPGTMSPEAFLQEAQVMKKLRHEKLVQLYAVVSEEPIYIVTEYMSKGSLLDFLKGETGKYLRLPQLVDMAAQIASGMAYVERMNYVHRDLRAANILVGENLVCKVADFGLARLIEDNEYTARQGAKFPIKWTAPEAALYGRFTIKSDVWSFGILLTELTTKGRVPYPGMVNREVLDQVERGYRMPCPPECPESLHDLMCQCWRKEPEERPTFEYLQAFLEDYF
# SRC Catalytic Domain, sequence (P12931 270-523 limits assumed): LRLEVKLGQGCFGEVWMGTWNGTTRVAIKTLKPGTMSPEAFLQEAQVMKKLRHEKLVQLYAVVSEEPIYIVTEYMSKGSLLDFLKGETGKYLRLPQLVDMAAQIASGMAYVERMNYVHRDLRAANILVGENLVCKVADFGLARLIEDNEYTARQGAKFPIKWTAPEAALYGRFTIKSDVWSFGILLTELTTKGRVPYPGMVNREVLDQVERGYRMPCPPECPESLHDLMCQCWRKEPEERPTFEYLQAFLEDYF
# T11 sequence (P07332 448-822 limits assumed): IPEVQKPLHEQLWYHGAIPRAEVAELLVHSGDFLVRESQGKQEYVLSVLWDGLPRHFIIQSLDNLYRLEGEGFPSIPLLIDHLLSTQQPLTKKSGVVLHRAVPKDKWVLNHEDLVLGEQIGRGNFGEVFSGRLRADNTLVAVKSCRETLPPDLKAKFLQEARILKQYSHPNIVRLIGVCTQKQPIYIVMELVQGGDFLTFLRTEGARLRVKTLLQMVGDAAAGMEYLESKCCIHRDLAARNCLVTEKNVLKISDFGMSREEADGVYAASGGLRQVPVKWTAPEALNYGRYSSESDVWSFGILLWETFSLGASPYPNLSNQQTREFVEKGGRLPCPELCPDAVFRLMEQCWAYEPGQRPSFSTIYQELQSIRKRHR
Structure (SMILES),Melting temperature (Tm) shift [1],Melting temperature (Tm) shift (SRC Catalytic Domain),Melting temperature (Tm) shift (FAK2 Catalytic Domain),Melting temperature (Tm) shift (STK3 Catalytic Domain),Melting temperature (Tm) shift (CDK2 + Cyclin E),Melting temperature (Tm) shift (PAK7 Catalytic Domain),Melting temperature (Tm) shift [2],Melting temperature (Tm) shift (CDK2 + Cyclin A),Melting temperature (Tm) shift (AKT3 Catalytic Domain),Melting temperature (Tm) shift [3],Melting temperature (Tm) shift (FES Catalytic Domain),Melting temperature (Tm) shift (DMPK Catalytic Domain),Melting temperature (Tm) shift (FES Catalytic Domain+SH2),Melting temperature (Tm) shift (CHK2 Catalytic Domain),Melting temperature (Tm) shift (PAK4 Catalytic Domain)
"CCCCc1c(-c2ccc(O)cc2)[nH]c2nccnc12 [Aloisine A, RP107, Aloisine A]",1.3 degrees Celcius,1.5 degrees Celcius,1.2 degrees Celcius,1.6 degrees Celcius,1.4 degrees Celcius,1.2 degrees Celcius,1.1 degrees Celcius,2.5 degrees Celcius,0.1 degrees Celcius,1.4 degrees Celcius,0.9 degrees Celcius,1.4 degrees Celcius,0.5 degrees Celcius,2.7 degrees Celcius,1.3 degrees Celcius
O=C1NC(=O)C(=Cc2cccc(C(F)(F)F)c2)S1 [PIM1/2 Kinase Inhibitor V],0.4 degrees Celcius,0.1 degrees Celcius,0.2 degrees Celcius,0.2 degrees Celcius,0.2 degrees Celcius,0.1 degrees Celcius,0.2 degrees Celcius,0.3 degrees Celcius,0.1 degrees Celcius,0.4 degrees Celcius,0.5 degrees Celcius,0.1 degrees Celcius,0.4 degrees Celcius,0.5 degrees Celcius,0.2 degrees Celcius
O=C(c1ccc(Nc2nccc(-c3cc4ccccc4s3)n2)cc1)N1CCC(N2CCCC2)CC1 [IKK Inhibitor VII],0.5 degrees Celcius,0.6 degrees Celcius,1.8 degrees Celcius,0.7 degrees Celcius,0.5 degrees Celcius,1.8 degrees Celcius,0.5 degrees Celcius,0.7 degrees Celcius,0.2 degrees Celcius,1.2 degrees Celcius,3.3 degrees Celcius,1.2 degrees Celcius,1.4 degrees Celcius,1.9 degrees Celcius,1.7 degrees Celcius
